Measurements published in article PMC6979384, “Characterization of the plant homeodomain (PHD) reader family for their histone tail interactions” (Epigenetics & Chromatin, 2020).

Columns and labels:
Test in all cases: Histone peptide microarray
Type in all cases: binding, human
AIRE (PP) = conditions: sheet "Array Heatmap"; GST-tagged AIRE (PP); arrays performed twice, total replicate number n = 4
Method in brief: (§1)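 Steps: express and purify GST-tagged PHD reader; incubate 0.5 μM protein on a peptide microarray (293 histone peptides, single or combined PTMs) following an optimized protocol; average signal across 4 replicates.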

BAZ2B = conditions: sheet "Array Heatmap"; GST-tagged BAZ2B; arrays performed twice, total replicate number n = 4
Method in brief: as §1

BPTF (PB) = conditions: sheet "Array Heatmap"; GST-tagged BPTF (PB); arrays performed twice, total replicate number n = 4
Method in brief: as §1

CHD4 (PPCC) = conditions: sheet "Array Heatmap"; GST-tagged CHD4 (PPCC); arrays performed twice, total replicate number n = 4
Method in brief: as §1

CHD5 (PCC) = conditions: sheet "Array Heatmap"; GST-tagged CHD5 (PCC); arrays performed twice, total replicate number n = 4
Method in brief: as §1

CHD5 (PPCC) = conditions: sheet "Array Heatmap"; GST-tagged CHD5 (PPCC); arrays performed twice, total replicate number n = 4
Method in brief: as §1

DIDO1 = conditions: sheet "Array Heatmap"; GST-tagged DIDO1; arrays performed twice, total replicate number n = 4
Method in brief: as §1

DPF2 (PPC2W2) = conditions: sheet "Array Heatmap"; GST-tagged DPF2 (PPC2W2); arrays performed twice, total replicate number n = 4
Method in brief: as §1

ING1 = conditions: sheet "Array Heatmap"; GST-tagged ING1; arrays performed twice, total replicate number n = 4
Method in brief: as §1

ING2 = conditions: sheet "Array Heatmap"; GST-tagged ING2; arrays performed twice, total replicate number n = 4
Method in brief: as §1

ING3 = conditions: sheet "Array Heatmap"; GST-tagged ING3; arrays performed twice, total replicate number n = 4
Method in brief: as §1

ING4 = conditions: sheet "Array Heatmap"; GST-tagged ING4; arrays performed twice, total replicate number n = 4
Method in brief: as §1

ING5 = conditions: sheet "Array Heatmap"; GST-tagged ING5; arrays performed twice, total replicate number n = 4
Method in brief: as §1

KDM4C (TTP) = conditions: sheet "Array Heatmap"; GST-tagged KDM4C (TTP); arrays performed twice, total replicate number n = 4
Method in brief: as §1

KDM5A (1) = conditions: sheet "Array Heatmap"; GST-tagged KDM5A (1); arrays performed twice, total replicate number n = 4
Method in brief: as §1

KDM5A (3) = conditions: sheet "Array Heatmap"; GST-tagged KDM5A (3); arrays performed twice, total replicate number n = 4
Method in brief: as §1

KDM5B (1) = conditions: sheet "Array Heatmap"; GST-tagged KDM5B (1); arrays performed twice, total replicate number n = 4
Method in brief: as §1

KDM5B (3) = conditions: sheet "Array Heatmap"; GST-tagged KDM5B (3); arrays performed twice, total replicate number n = 4
Method in brief: as §1

KDM7A = conditions: sheet "Array Heatmap"; GST-tagged KDM7A; arrays performed twice, total replicate number n = 4
Method in brief: as §1

MLL5 = conditions: sheet "Array Heatmap"; GST-tagged MLL5; arrays performed twice, total replicate number n = 4
Method in brief: as §1

MORC3 (CW) = conditions: sheet "Array Heatmap"; GST-tagged MORC3 (CW); arrays performed twice, total replicate number n = 4
Method in brief: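 Each reader, produced as a GST fusion and purified, was tested at 0.5 μM on synthetic histone peptides (293 in total) carrying single or combinatorial marks. Intensities averaged over four replicates.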

PHF13 = conditions: sheet "Array Heatmap"; GST-tagged PHF13; arrays performed twice, total replicate number n = 4
Method in brief: as §1

PHF21A = conditions: sheet "Array Heatmap"; GST-tagged PHF21A; arrays performed twice, total replicate number n = 4
Method in brief: as §1

PHF23 = conditions: sheet "Array Heatmap"; GST-tagged PHF23; arrays performed twice, total replicate number n = 4
Method in brief: as §1

PHF2 = conditions: sheet "Array Heatmap"; GST-tagged PHF2; arrays performed twice, total replicate number n = 4
Method in brief: as §1

PHF8 = conditions: sheet "Array Heatmap"; GST-tagged PHF8; arrays performed twice, total replicate number n = 4
Method in brief: as §1

PHRF1 (RP) = conditions: sheet "Array Heatmap"; GST-tagged PHRF1 (RP); arrays performed twice, total replicate number n = 4
Method in brief: as §1

RAG2 = conditions: sheet "Array Heatmap"; GST-tagged RAG2; arrays performed twice, total replicate number n = 4
Method in brief: as §1

SP140L = conditions: sheet "Array Heatmap"; GST-tagged SP140L; arrays performed twice, total replicate number n = 4
Method in brief: as §1

TAF3 = conditions: sheet "Array Heatmap"; GST-tagged TAF3; arrays performed twice, total replicate number n = 4
Method in brief: as §1

TRIM66 (PB) = conditions: sheet "Array Heatmap"; GST-tagged TRIM66 (PB); arrays performed twice, total replicate number n = 4
Method in brief: as §1

Row | Substance | Array Heatmap signal, AIRE (PP) (AIRE (PP)) | Array Heatmap signal, BAZ2B (BAZ2B) | Array Heatmap signal, BPTF (PB) (BPTF (PB)) | Array Heatmap signal, CHD4 (PPCC) (CHD4 (PPCC)) | Array Heatmap signal, CHD5 (PCC) (CHD5 (PCC)) | Array Heatmap signal, CHD5 (PPCC) (CHD5 (PPCC)) | Array Heatmap signal, DIDO1 (DIDO1) | Array Heatmap signal, DPF2 (PPC2W2) (DPF2 (PPC2W2)) | Array Heatmap signal, ING1 (ING1) | Array Heatmap signal, ING2 (ING2) | Array Heatmap signal, ING3 (ING3) | Array Heatmap signal, ING4 (ING4) | Array Heatmap signal, ING5 (ING5) | Array Heatmap signal, KDM4C (TTP) (KDM4C (TTP)) | Array Heatmap signal, KDM5A (1) (KDM5A (1)) | Array Heatmap signal, KDM5A (3) (KDM5A (3)) | Array Heatmap signal, KDM5B (1) (KDM5B (1)) | Array Heatmap signal, KDM5B (3) (KDM5B (3)) | Array Heatmap signal, KDM7A (KDM7A) | Array Heatmap signal, MLL5 (MLL5) | also measured
1 | H3 15-34: H3 15-34 | 0.5155 | 0.514 | 0.3761 | 0.5968 | 0.8306 | 0.6174 | 0.6822 | 0.6945 | 0.5616 | 0.6111 | 0.5057 | 0.5265 | 0.4109 | 0.5661 | 0.5387 | 0.4281 | 0.7112 | 0.4984 | 0.4439 | 0.5742 | Array Heatmap signal, MORC3 (CW) (MORC3 (CW)): 0.3679; Array Heatmap signal, PHF13 (PHF13): 0.6527; Array Heatmap signal, PHF21A (PHF21A): 0.5191; Array Heatmap signal, PHF23 (PHF23): 0.5205; Array Heatmap signal, PHF2 (PHF2): 0.4604; Array Heatmap signal, PHF8 (PHF8): 0.3827; Array Heatmap signal, PHRF1 (RP) (PHRF1 (RP)): 0.4582; Array Heatmap signal, RAG2 (RAG2): 0.2601; Array Heatmap signal, SP140L (SP140L): 0.3812; Array Heatmap signal, TAF3 (TAF3): 0.3059; Array Heatmap signal, TRIM66 (PB) (TRIM66 (PB)): 0.5952
2 | H3 30-49: H3 30-49 | 0.3585 | 0.368 | 0.2984 | 0.528 | 0.7179 | 0.4615 | 0.6094 | 0.6079 | 0.4722 | 0.5897 | 0.4287 | 0.3885 | 0.2813 | 0.4088 | 0.3827 | 0.3525 | 0.5482 | 0.3902 | 0.3271 | 0.4726 | Array Heatmap signal, MORC3 (CW) (MORC3 (CW)): 0.3313; Array Heatmap signal, PHF13 (PHF13): 0.5208; Array Heatmap signal, PHF21A (PHF21A): 0.4117; Array Heatmap signal, PHF23 (PHF23): 0.4894; Array Heatmap signal, PHF2 (PHF2): 0.4841; Array Heatmap signal, PHF8 (PHF8): 0.3204; Array Heatmap signal, PHRF1 (RP) (PHRF1 (RP)): 0.3713; Array Heatmap signal, RAG2 (RAG2): 0.2065; Array Heatmap signal, SP140L (SP140L): 0.3311; Array Heatmap signal, TAF3 (TAF3): 0.2243; Array Heatmap signal, TRIM66 (PB) (TRIM66 (PB)): 0.5425
3 | H3 105-124: H3 105-124 | 0.5002 | 0.4756 | 0.3405 | 0.628 | 0.8446 | 0.5675 | 0.6132 | 0.5942 | 0.4905 | 0.5916 | 0.4768 | 0.4475 | 0.3472 | 0.5235 | 0.4735 | 0.3849 | 0.6304 | 0.4564 | 0.4014 | 0.5209 | Array Heatmap signal, MORC3 (CW) (MORC3 (CW)): 0.3313; Array Heatmap signal, PHF13 (PHF13): 0.6001; Array Heatmap signal, PHF21A (PHF21A): 0.4845; Array Heatmap signal, PHF23 (PHF23): 0.5245; Array Heatmap signal, PHF2 (PHF2): 0.4643; Array Heatmap signal, PHF8 (PHF8): 0.3594; Array Heatmap signal, PHRF1 (RP) (PHRF1 (RP)): 0.3871; Array Heatmap signal, RAG2 (RAG2): 0.2418; Array Heatmap signal, SP140L (SP140L): 0.3548; Array Heatmap signal, TAF3 (TAF3): 0.2585; Array Heatmap signal, TRIM66 (PB) (TRIM66 (PB)): 0.6004
